Tested on: Mycobacterium tuberculosis
Test: Cornell M. t heat shock assay
Assay type: functional, organism-based
Conditions: Mycobacterium tuberculosis

Structure (SMILES) | IC50 [µM]
CCCNC(=O)C(C)n1nc(-c2ccc(C)o2)cc(N)c1=O (stereo not given) | > 100
CC(C)Cn1nc(-c2ccc(C(=O)O)cc2)cc1-c1ccc(F)cc1 | 97.1
Cn1ccnc1-c1nc(NC2CCCC2)ncc1-c1cccc(F)c1 | 40.3
COc1cccc(CN2CCCC2c2cncc(Nc3nncs3)n2)c1 (stereo not given) | 26.9
c1ccc(CCN2CCCC2c2cncc(Nc3nncs3)n2)cc1 (stereo not given) | 25.5
c1nnc(Nc2cncc(C3CCCN3CC3CC3)n2)s1 (stereo not given) | 29.8
Cc1cccc(CN2CCCC2c2cncc(Nc3nncs3)n2)c1 (stereo not given) | 17.1
CNC(=O)C1(C)CN(Cc2cn(C)c3ccc(F)cc23)CCO1 (stereo not given) | > 100
Cc1cccc(CNC(Cc2ccsc2)c2nccs2)n1 (stereo not given) | 49.9
CNc1cc(C2CN(Cc3scnc3C)CCO2)nc(C)n1 (stereo not given) | > 100
O=C(c1cncs1)N1CCCC1c1ccn[nH]1 (stereo not given) | > 100
COc1cc(C2Nc3cc(Cl)ccc3C3=NCCN32)ccc1O (stereo not given) | > 100
Nc1cc(-c2cccs2)nn(CC(=O)NCC2CCCCC2)c1=O | > 100
Cc1cc(-c2cnc(NCc3ccccn3)nc2C(C)C)on1 | > 100
COc1ccccc1CN1CCc2c(nc(-c3ccccn3)[nH]c2=O)C1 | 3.35
CCOC(=O)C(C)Nc1cccc(COCc2ccco2)c1 (stereo not given) | > 100
Cc1cc(N2CCOCC2)ccc1NC(C)c1nc(C(C)(C)C)no1 (stereo not given) | > 100
Cc1cc(N2CCOCC2)ccc1NC(C)c1nc(C(C)C)no1 (stereo not given) | > 100
CCN1CCN(c2ccc(NC(C)c3nc(C(C)C)no3)c(C)c2)CC1 (stereo not given) | > 100
CN1CCN(C(=O)c2cnsn2)c2ccc(F)cc21 | 67.4
CCOc1cccc(COC(=O)c2cscn2)n1 | > 100
CC(CCSc1ccccc1)N1CCN(C(=O)c2cccs2)CC1 (stereo not given) | > 100
CCC(NC(=O)Nc1ccc(OC)c(C)c1)c1ccncc1 (stereo not given) | 49.9
Cc1cccn2cc(CN3CCCC(c4noc(C5CC5)n4)C3)nc12 (stereo not given) | 46.5
O=C(Nc1ccnc2ccnn12)c1ccc(N2CCC(O)CC2)cc1 | 74.1

Structure (SMILES) | IC50 [µM]
COCCN(C)c1ccc(NCc2ccsc2)nc1 | > 100
Cn1c(CCN2CCN(CCc3ccccc3)CC2)nc2ccccc21 | > 100
CCNc1ncc(C(=O)NCc2ccc3nsnc3c2)cn1 | > 100
COc1ccc(OCc2cc(C(=O)N3CCCCO3)n[nH]2)c(Cl)c1 | > 100
Cc1ccccc1C1CCN(CCn2cc(-c3cccc(O)c3)nn2)C1 (stereo not given) | 78.7
CC1(c2ccccc2)CCCN(Cc2cncn2C2CC2)C1 (stereo not given) | 45.7
COc1ccc2c(c1)OCC(CNc1cc(N)nc(SC)n1)C2 (stereo not given) | 62.6
Cc1ccsc1CN(c1nc(CCN)nc2ccccc12)C1CC1 | 49.6
CCNC(=O)[C@@H]1C[C@H](NC(=O)Cn2ccnc2)CN1Cc1ccsc1 | > 100
Cc1c(CN(C)c2cc(C3CCCNC3)ncn2)[nH]c2ccccc12 (stereo not given) | > 100
CC(C)c1nc(N2CCC(N3CCCCCC3)CC2)c2cnn(C)c2n1 | 52.5
COc1cc(-c2cc(NC3CCCC3)nc3[nH]ccc23)nc(N)n1 | 2.7
CSc1nccc(-c2cccc(-c3ccn(CC4COCCO4)n3)c2)n1 (stereo not given) | 40.3
CCCn1cc(-c2ccnc(NC3CCCc4ccccc43)n2)c(C)n1 (stereo not given) | 21.4
Cc1cnn(CC2CCCN2Cc2nc(C)c3ccccc3n2)c1 (stereo not given) | 34.9
O=C(Cc1c[nH]c2ccccc12)N1CCC(Nc2ccccc2)CC1 | > 100
CC(C)Oc1ncccc1CNC(=O)c1ccccn1 | > 100
O=C(c1cc2cc(I)ccc2[nH]1)N1CCC(Nc2cccnn2)CC1 | 48.7
CCOc1ccccc1-c1cc(N)[nH]n1 | 26.4
c1nnc(Nc2cncc(C3CCCN3)n2)s1 (stereo not given) | 6.43
COc1ccc(CNC(Cc2ccsc2)c2ccc(C)cn2)cc1OC (stereo not given) | 25.6
NCC1CCC(c2c(C(=O)NCCO)sc3ccccc23)CC1 (stereo not given) | > 100
CC(=O)N1CCC[C@@H](NCc2c[nH]c3ccccc23)[C@@H]1c1ccc(C)s1 | > 100
CCN1c2ccc(-c3cncn3CC(=O)NC(C)(C)C)cc2CC1C (stereo not given) | > 100
Cc1ccc(CNC(c2cccc(F)c2)c2nccn2C)o1 (stereo not given) | > 100

Reference: ChEMBL document CHEMBL3988442, “University of Dundee, Small-Polar-MMV Screening Library” (2021)
